From article PMC5766998, “Determination of the native features of the exoglucanase Cel48S from Clostridium thermocellum” (Biotechnology for Biofuels, 2018)

Target: T1, ctCel48S_CD (Acetivibrio thermocellus, UniProt C7ED31)
T1 construct: GH48 catalytic domain, dockerin removed by inserted stop codon; C-terminal Gly5 linker and His12 tag kept; purified from culture supernatant of C. thermocellum DSM1313 (secreted); monomer
Experiment: reducing sugars released, HPLC
Format: biochemical
Details: 1% (wt/vol) substrate, 50 mM succinate pH 5.7, 10 mM CaCl2, 55 °C, 5 h

T1 sequence (C7ED31 entry or part of it): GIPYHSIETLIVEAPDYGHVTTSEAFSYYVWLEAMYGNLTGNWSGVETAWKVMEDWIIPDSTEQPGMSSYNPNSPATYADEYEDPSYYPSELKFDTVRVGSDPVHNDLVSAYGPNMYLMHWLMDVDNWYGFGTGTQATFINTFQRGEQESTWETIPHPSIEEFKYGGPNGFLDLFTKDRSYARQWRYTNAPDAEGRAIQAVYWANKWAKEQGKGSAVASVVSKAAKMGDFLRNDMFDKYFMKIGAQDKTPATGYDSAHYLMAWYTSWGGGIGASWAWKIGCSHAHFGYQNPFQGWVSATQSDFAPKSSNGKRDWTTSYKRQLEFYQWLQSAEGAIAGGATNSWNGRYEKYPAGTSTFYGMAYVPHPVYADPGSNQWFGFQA

Compound	reducing sugars released, HPLC
OC[C@H]1O[C@@H](O[C@H]2[C@H](O)[C@@H](O)[C@H](O[C@H]3[C@H](O)[C@@H](O)[C@H](O[C@H]4[C@H](O)[C@@H](O)[C@H](O[C@H]5[C@H](O)[C@@H](O)C(O)O[C@@H]5CO)O[C@@H]4CO)O[C@@H]3CO)O[C@@H]2CO)[C@H](O)[C@@H](O)[C@@H]1O (some centres unmarked) [cellopentose]	ctCel48S_CD could also hydrolyze cellopentose and cellotetrose
OC[C@H]1O[C@@H](O[C@H]2[C@H](O)[C@@H](O)[C@H](O[C@H]3[C@H](O)[C@@H](O)[C@H](O[C@H]4[C@H](O)[C@@H](O)C(O)O[C@@H]4CO)O[C@@H]3CO)O[C@@H]2CO)[C@H](O)[C@@H](O)[C@@H]1O (some centres unmarked) [cellotetrose]	ctCel48S_CD could also hydrolyze cellopentose and cellotetrose
